In assay [1] the target is T1, HDAC6 enzyme (Homo sapiens, UniProt Q9UBN7).
T1 construct: prepared by transducing full length HDAC1 and HDAC6 genes into Sf-9 insect cells; GST; purchased SignalChem; host or cells: Sf-9 insect cells
T1 sequence (Q9UBN7 1-1215): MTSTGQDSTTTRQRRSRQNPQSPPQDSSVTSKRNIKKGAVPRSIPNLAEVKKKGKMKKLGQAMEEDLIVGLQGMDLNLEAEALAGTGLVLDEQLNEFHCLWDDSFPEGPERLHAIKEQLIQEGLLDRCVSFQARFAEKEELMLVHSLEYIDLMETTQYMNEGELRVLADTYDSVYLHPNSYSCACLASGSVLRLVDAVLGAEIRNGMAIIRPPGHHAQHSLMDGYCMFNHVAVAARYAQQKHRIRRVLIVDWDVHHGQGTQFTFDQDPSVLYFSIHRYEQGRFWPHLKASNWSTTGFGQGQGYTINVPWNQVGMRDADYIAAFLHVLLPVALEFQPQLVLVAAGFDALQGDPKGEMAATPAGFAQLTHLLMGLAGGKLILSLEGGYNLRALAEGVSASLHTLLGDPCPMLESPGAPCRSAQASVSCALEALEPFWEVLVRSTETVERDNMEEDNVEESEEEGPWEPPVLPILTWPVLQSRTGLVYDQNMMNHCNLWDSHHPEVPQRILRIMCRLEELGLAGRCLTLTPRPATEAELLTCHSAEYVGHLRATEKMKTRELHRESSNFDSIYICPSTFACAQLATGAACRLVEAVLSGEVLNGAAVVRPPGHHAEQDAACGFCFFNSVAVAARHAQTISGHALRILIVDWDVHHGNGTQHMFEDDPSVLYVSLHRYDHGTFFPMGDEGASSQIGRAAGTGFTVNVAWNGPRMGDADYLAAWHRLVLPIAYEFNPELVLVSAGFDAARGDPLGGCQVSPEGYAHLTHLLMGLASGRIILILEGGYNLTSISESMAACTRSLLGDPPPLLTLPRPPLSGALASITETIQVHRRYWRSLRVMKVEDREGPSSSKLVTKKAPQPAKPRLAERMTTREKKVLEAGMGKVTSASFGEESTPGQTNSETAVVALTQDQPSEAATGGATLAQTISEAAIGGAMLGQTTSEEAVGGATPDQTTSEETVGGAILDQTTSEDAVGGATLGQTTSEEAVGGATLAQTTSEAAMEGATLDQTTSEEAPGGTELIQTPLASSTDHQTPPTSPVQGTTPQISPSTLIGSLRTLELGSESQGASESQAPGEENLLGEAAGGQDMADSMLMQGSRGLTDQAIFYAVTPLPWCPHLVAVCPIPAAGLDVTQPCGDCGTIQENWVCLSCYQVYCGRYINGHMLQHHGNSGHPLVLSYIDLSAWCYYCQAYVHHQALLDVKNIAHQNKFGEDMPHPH
The assay can be described thus: HDAC6 enzyme inhibitory assay (HDAC-Glo I/II Assay kit). Type of assay: biochemical. The settings on record: 1 μM test compound; read-out: HDAC6 inhibitory rate (%) (1 μM). Summed up:
(§1)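 Sf-9-expressed GST-purified full-length HDAC1/HDAC6; cpd + enzyme 60 min RT, 24 mM Tris-HCl pH 7.5, 135 mM NaCl, 0.6 mM glutathione, 0.01% Tween-20; substrate-developer 20 min RT; luminescence; no-enzyme wells = 100% inhibition.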

In assay [2] the target is T2, HDAC1 enzyme (Homo sapiens, UniProt Q13547).
T2 construct: prepared by transducing full length HDAC1 and HDAC6 genes into Sf-9 insect cells; GST; purchased SignalChem; host or cells: Sf-9 insect cells
Briefly: HDAC1 enzyme inhibitory assay (HDAC-Glo I/II Assay kit). The format is biochemical. As to conditions: 1 μM test compound; read-out: HDAC1 inhibitory rate (%) (1 μM). The essentials:
as §1

Experimental findings from patent publication US10081624B2, “Heterocyclic compound” (Takeda Pharmaceutical Company Limited, priority 2014, dated 2018) are described below.

T2 sequence (Q13547 whole entry): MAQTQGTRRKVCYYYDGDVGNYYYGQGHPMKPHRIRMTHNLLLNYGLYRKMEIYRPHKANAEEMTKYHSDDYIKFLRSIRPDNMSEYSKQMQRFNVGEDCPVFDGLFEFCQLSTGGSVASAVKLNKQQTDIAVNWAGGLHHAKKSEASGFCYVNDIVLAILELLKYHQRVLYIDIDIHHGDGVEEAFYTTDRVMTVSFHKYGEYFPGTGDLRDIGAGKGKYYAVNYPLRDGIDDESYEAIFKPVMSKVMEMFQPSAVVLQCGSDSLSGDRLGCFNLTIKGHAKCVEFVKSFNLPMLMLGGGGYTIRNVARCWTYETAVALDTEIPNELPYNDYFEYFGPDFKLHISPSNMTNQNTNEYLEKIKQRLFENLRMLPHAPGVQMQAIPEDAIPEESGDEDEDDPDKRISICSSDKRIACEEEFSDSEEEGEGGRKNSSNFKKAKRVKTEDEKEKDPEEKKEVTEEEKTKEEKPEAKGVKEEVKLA

With `O=C(NC[C@H]1COCCN1C(=O)N1CCC[C@@H]1C(F)(F)F)c1ccc(-c2noc(C(F)(F)F)n2)cc1` [Example 286, 4-(5-(trifluoromethyl)-1,2,4-oxadiazol-3-yl)-N-(((3S)-4-(((2R)-2-(trifluoromethyl)pyrrolidin-1-yl)carbonyl)morpholin-3-yl)methyl)benzamide], the inhibition at 1 µM came out at 95% in assay [1] and 2% in assay [2].
In the case of `O=C(NC[C@H]1COCCN1C(=O)N1CCC[C@H]1C(F)(F)F)c1ccc(-c2noc(C(F)(F)F)n2)cc1` [Example 287, 4-(5-(trifluoromethyl)-1,2,4-oxadiazol-3-yl)-N-(((3S)-4-(((2S)-2-(trifluoromethyl)pyrrolidin-1-yl)carbonyl)morpholin-3-yl)methyl)benzamide], the inhibition at 1 µM in assay [1] is 91%; in assay [2], 2%.
For `C[C@H]1CCCN1C(=O)N1CCOC[C@@H]1CNC(=O)c1ccc(-c2noc(C(F)(F)F)n2)cc1` [Example 288, N-(((3S)-4-(((2S)-2-methylpyrrolidin-1-yl)carbonyl)morpholin-3-yl)methyl)-4-(5-(trifluoromethyl)-1,2,4-oxadiazol-3-yl)benzamide], in that order: 102% and 3%.
For `C[C@@H]1CCCN1C(=O)N1CCOC[C@@H]1CNC(=O)c1ccc(-c2noc(C(F)(F)F)n2)cc1` [Example 289, N-(((3S)-4-(((2R)-2-methylpyrrolidin-1-yl)carbonyl)morpholin-3-yl)methyl)-4-(5-(trifluoromethyl)-1,2,4-oxadiazol-3-yl)benzamide], in that order: 85% and 4%.
For `O=C(NC[C@H]1COCCN1C(=O)N1CCCOCC1)c1ccc(-c2noc(C(F)(F)F)n2)cc1` [Example 290, N-(((3S)-4-(1,4-oxazepan-4-ylcarbonyl)morpholin-3-yl)methyl)-4-(5-(trifluoromethyl)-1,2,4-oxadiazol-3-yl)benzamide], in that order: 97% and 3%.
With `O=C(NC[C@H]1COCCN1C(=O)N1CCCOC(CO)C1)c1ccc(-c2noc(C(F)(F)F)n2)cc1` (stereo partly drawn) [Example 291, N-(((3S)-4-((2-(hydroxymethyl)-1,4-oxazepan-4-yl)carbonyl)morpholin-3-yl)methyl)-4-(5-(trifluoromethyl)-1,2,4-oxadiazol-3-yl)benzamide], the inhibition at 1 µM in assay [1] turned out to be 90%; in assay [2], 1%.
On to `O=C(NC[C@H]1COCCN1C(=O)N1CCCC1c1cccnc1)c1ccc(-c2noc(C(F)(F)F)n2)cc1` (stereo partly drawn) [Example 292, N-(((3S)-4-((2-(pyridin-3-yl)pyrrolidin-1-yl)carbonyl)morpholin-3-yl)methyl)-4-(5-(trifluoromethyl)-1,2,4-oxadiazol-3-yl)benzamide], for which the inhibition at 1 µM was 76% in assay [1] and 2% in assay [2].
For `O=C(NC[C@H]1COCCN1C(=O)N1CCC(c2ccccc2)C1)c1ccc(-c2noc(C(F)(F)F)n2)cc1` (stereo partly drawn) [Example 293, N-(((3S)-4-((3-phenylpyrrolidin-1-yl)carbonyl)morpholin-3-yl)methyl)-4-(5-(trifluoromethyl)-1,2,4-oxadiazol-3-yl)benzamide], in that order: 90% and 14%.
With `O=C(NC[C@H]1COCCN1C(=O)N1CCC(c2cccnc2)C1)c1ccc(-c2noc(C(F)(F)F)n2)cc1` (stereo partly drawn) [Example 294, N-(((3S)-4-((3-(pyridin-3-yl)pyrrolidin-1-yl)carbonyl)morpholin-3-yl)methyl)-4-(5-(trifluoromethyl)-1,2,4-oxadiazol-3-yl)benzamide], the inhibition at 1 µM is 82% in assay [1] and 5% in assay [2].
For `O=C(NC[C@H]1COCCN1C(=O)N1CCC(c2ccncc2)C1)c1ccc(-c2noc(C(F)(F)F)n2)cc1` (stereo partly drawn) [Example 295, N-(((3S)-4-((3-(pyridin-4-yl)pyrrolidin-1-yl)carbonyl)morpholin-3-yl)methyl)-4-(5-(trifluoromethyl)-1,2,4-oxadiazol-3-yl)benzamide], in that order: 85% and 8%.
